From patent US8436040B2, “Method of treating conditions involving PPAR-receptors with indole compounds” (Laboratoires Fournier S.A., priority 2005, dated 2013)

Columns and labels:
db/db mice = assay: db/db mouse model: serum glucose, triglyceride and cholesterol levels; assay type: in vivo; conditions: serum 4 hours after last gavage
Protocol: The test protocol is as follows:
Homozygous C57BL/Ks-db male mice (db/db mice), 11 to 13 weeks old at the start of the studies, are divided up into groups of 9-10 animals. The products are administered orally once a day for 5 days. One group of mice receives the vehicle only (0.5 or 1% methyl cellulose solution). A blood sample is taken from the retro-orbital sinus before treatment and 4 hours after the last gavage.
After centrifugation, the serum is collected and the cholesterol, triglyceride and glucose levels are measured using a multiparameter analyzer with commercial kits.
The results are expressed in % variation on the final day relative to the control group.

C2C12 cells = assay: β-oxidation of 1-C14 oleate on C2C12 cells differentiated in myotubes; assay type: cell-based, murine; conditions: 100 μM, 48 hours incubation
Protocol: A second series of tests was performed with the compounds according to the invention in order to confirm the activity deduced from their affinity for the aforementioned receptors. This test consists in measuring the β-oxidation on HuH7 cells of human hepatic origin and C2C12 cells of murine muscular origin after differentiation in myotubes.
The cells are inoculated into Petri dishes containing a central well. The products are added to the culture medium and incubated for 48 hours at different concentrations. After incubation for 22 hours, C14-radiolabeled oleate (1-C14 oleate) is added to the culture medium. The β-oxidation reaction is stopped 2 hours later by the addition of 40% perchloric acid.
The CO2 liberated during the oxidation of the oleate is trapped with KOH solution and then counted.
Each test is performed three times.
The results are expressed in % variation relative to the control dishes (dishes without compounds).

[1] = 30 mg/kg orally once a day for 5 days
[2] = 100 mg/kg orally once a day for 5 days
[3] = 3 mg/kg orally once a day for 5 days

Compound	Cholesterol, % variation on the final day relative to the control group (db/db mice; [1])	Glucose, % variation on the final day relative to the control group (db/db mice; [1]) [%]	Triglycerides, % variation on the final day relative to the control group (db/db mice; [1]) [%]	further results
O=C(O)CCc1cc2cc(Cl)ccc2n1S(=O)(=O)c1ccccc1 [Example 2, 5-Chloro-1-(phenylsulfonyl)-1H-indole-2-propanoic acid]	+30%	0	−7	
O=C(O)CCc1cc2cc(C(F)(F)F)ccc2n1S(=O)(=O)c1ccccc1 [Example 4, 1-(Phenylsulfonyl)-5-(trifluoromethyl)-1H-indole-2-propanoic acid]	+41%	−30	−12	β-oxidation, % variation relative to the control dishes (C2C12 cells): 82%
O=C(O)CCc1cc2cc(Cl)ccc2n1S(=O)(=O)c1ccc2ncsc2c1 [Example 155, 1-[(6-Benzothiazolyl)sulfonyl]-5-chloro-1H-indole-2-propanoic acid]	+38%	−35	−41	
O=C(O)CCCc1cc2cc(Cl)ccc2n1S(=O)(=O)c1ccc2c(c1)OCO2 [Example 163, 1-[(1,3-Benzodioxol-5-yl)sulfonyl]-5-chloro-1H-indole-2-butanoic acid]	−15%	−38	−35	
CC(OCc1cc2cc(Cl)ccc2n1S(=O)(=O)c1ccccc1)C(=O)O (stereo not shown) [Example 202, 2-[[5-Chloro-1-(phenylsulfonyl)-1H-indol-2-yl]methoxy]propanoic acid]	+25%	−52	−48	
CC(C)OC(=O)C(C)(C)Oc1ccc(C(=O)c2ccc(Cl)cc2)cc1 [Fenofibrate]				Cholesterol, % variation on the final day relative to the control group (db/db mice; [2]): +32%; Glucose, % variation on the final day relative to the control group (db/db mice; [2]): −9%; Triglycerides, % variation on the final day relative to the control group (db/db mice; [2]): −7%
CN(CCOc1ccc(CC2SC(=O)NC2=O)cc1)c1ccccn1 (stereo not shown) [Rosiglitazone, rosiglitazone, reference compound]				Cholesterol, % variation on the final day relative to the control group (db/db mice; [3]): −30%; Glucose, % variation on the final day relative to the control group (db/db mice; [3]): −41%; Triglycerides, % variation on the final day relative to the control group (db/db mice; [3]): −52%
